Data published in the supplement of paper PMC10307832.

Experiments:
Test in all cases: relative viability (nuclei count vs DMSO), 5 days (fraction); higher = more cells survive
NCI-H3122 = system: NCI-H3122
Summary of the method: (§1)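 Lung cancer cell lines in 1536-well plates were dosed by pin tool the day after seeding, either with one drug alone or with a fixed anchor-drug dose plus five library-drug doses (not always all listed) in √10 steps. After 5 days, cells were fixed and their nuclei stained in one step (final 0.05% Triton X-100, 1% formaldehyde, 1 ug/ml Hoechst), then counted on 4× images. Relative viability is the nuclei count in treated wells divided by that in vehicle wells. Values are medians of duplicate plates.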

NCI-H2170 = system: NCI-H2170
Summary of the method: as §1

LXF-289 = system: LXF-289
Summary of the method: as §1

PC-3 [JPC-3] = system: PC-3 [JPC-3]
Summary of the method: as §1

NCI-H727 = system: NCI-H727
Summary of the method: as §1

EMC-BAC-2 = system: EMC-BAC-2
Summary of the method: as §1

NCI-H1993 = system: NCI-H1993
Summary of the method: as §1

NCI-H2228 = system: NCI-H2228
Summary of the method: as §1

NCI-H1944 = system: NCI-H1944
Summary of the method: as §1

A-427 = system: A-427
Summary of the method: as §1

HOP-62 = system: HOP-62
Summary of the method: as §1

NCI-H2009 = system: NCI-H2009
Summary of the method: as §1

NCI-H596 = system: NCI-H596
Summary of the method: as §1

LK-2 = system: LK-2
Summary of the method: as §1

NCI-H322M = system: NCI-H322M
Summary of the method: as §1

SK-MES-1 = system: SK-MES-1
Summary of the method: as §1

HARA = system: HARA
Summary of the method: as §1

SW 1573 = system: SW 1573
Summary of the method: as §1

NCI-H1792 = system: NCI-H1792
Summary of the method: as §1

In the case of `Cc1sc2c(c1C)C(c1ccc(Cl)cc1)=N[C@@H](CC(=O)OC(C)(C)C)c1nnc(C)n1-2` [JQ1] + CC1(C)CCC(c2ccc(Cl)cc2)=C(CN2CCN(c3ccc(C(=O)NS(=O)(=O)c4ccc(N[C@H](CCN5CCOCC5)CSc5ccccc5)c(S(=O)(=O)C(F)(F)F)c4)cc3)CC2)C1 [Navitoclax] (partner 0.5 µM), the relative viability (NCI-H3122; first compound 0.04 µM) was 1.01, the relative viability (NCI-H3122; first compound 0.1265 µM) was 1.01 and the relative viability (NCI-H3122; first compound 0.4 µM) was 1.07. The relative viability (NCI-H3122; first compound 1.265 µM) was 0.552, the relative viability (NCI-H3122; first compound 4 µM) was 0.511 and the relative viability (NCI-H2170; first compound 0.04 µM) was 0.652. For the same molecule, the relative viability (NCI-H2170; first compound 0.1265 µM) was 0.641, the relative viability (NCI-H2170; first compound 0.4 µM) was 0.452 and the relative viability (NCI-H2170; first compound 1.265 µM) was 0.279. The relative viability (NCI-H2170; first compound 4 µM) was 0.285, the relative viability (LXF-289; first compound 0.04 µM) was 0.964 and the relative viability (LXF-289; first compound 0.1265 µM) was 0.975. It also gave a relative viability (LXF-289; first compound 0.4 µM) of 0.863, a relative viability (LXF-289; first compound 1.265 µM) of 0.731 and a relative viability (LXF-289; first compound 4 µM) of 0.29. The relative viability (PC-3 [JPC-3]; first compound 0.04 µM) was 0.781, the relative viability (PC-3 [JPC-3]; first compound 0.1265 µM) was 0.877 and the relative viability (PC-3 [JPC-3]; first compound 0.4 µM) was 0.942. The relative viability (PC-3 [JPC-3]; first compound 1.265 µM) was 0.644, the relative viability (PC-3 [JPC-3]; first compound 4 µM) was 0.499 and the relative viability (NCI-H727; first compound 0.04 µM) was 0.436. For the same molecule, the relative viability (NCI-H727; first compound 0.1265 µM) was 0.453, the relative viability (NCI-H727; first compound 0.4 µM) was 0.291 and the relative viability (NCI-H727; first compound 1.265 µM) was 0.209. For the same molecule, the relative viability (NCI-H727; first compound 4 µM) was 0.252, the relative viability (EMC-BAC-2; first compound 0.04 µM) was 1.18 and the relative viability (EMC-BAC-2; first compound 0.1265 µM) was 1.18. For the same molecule, the relative viability (EMC-BAC-2; first compound 0.4 µM) was 1.01, the relative viability (EMC-BAC-2; first compound 1.265 µM) was 0.61 and the relative viability (EMC-BAC-2; first compound 4 µM) was 0.658. For the same molecule, the relative viability (NCI-H1993; first compound 0.04 µM) was 0.929, the relative viability (NCI-H1993; first compound 0.1265 µM) was 0.811 and the relative viability (NCI-H1993; first compound 0.4 µM) was 0.861. The relative viability (NCI-H1993; first compound 1.265 µM) was 0.85, the relative viability (NCI-H1993; first compound 4 µM) was 0.875 and the relative viability (NCI-H2228; first compound 0.04 µM) was 1.13. For the same molecule, the relative viability (NCI-H2228; first compound 0.1265 µM) was 0.671, the relative viability (NCI-H2228; first compound 0.4 µM) was 0.667 and the relative viability (NCI-H2228; first compound 1.265 µM) was 0.557. It also gave a relative viability (NCI-H2228; first compound 4 µM) of 0.308, a relative viability (NCI-H1944; first compound 0.04 µM) of 1.02 and a relative viability (NCI-H1944; first compound 0.1265 µM) of 0.922. It also gave a relative viability (NCI-H1944; first compound 0.4 µM) of 1.07, a relative viability (NCI-H1944; first compound 1.265 µM) of 0.762 and a relative viability (NCI-H1944; first compound 4 µM) of 0.617. The relative viability (A-427; first compound 0.04 µM) was 0.997, the relative viability (A-427; first compound 0.1265 µM) was 0.974 and the relative viability (A-427; first compound 0.4 µM) was 1. The relative viability (A-427; first compound 1.265 µM) was 0.854, the relative viability (A-427; first compound 4 µM) was 0.784 and the relative viability (HOP-62; first compound 0.04 µM) was 0.926. For the same molecule, the relative viability (HOP-62; first compound 0.1265 µM) was 0.841, the relative viability (HOP-62; first compound 0.4 µM) was 0.516 and the relative viability (HOP-62; first compound 1.265 µM) was 0.133. For the same molecule, the relative viability (HOP-62; first compound 4 µM) was 0.0774, the relative viability (NCI-H2009; first compound 0.04 µM) was 1.2 and the relative viability (NCI-H2009; first compound 0.1265 µM) was 0.938. For the same molecule, the relative viability (NCI-H2009; first compound 0.4 µM) was 0.837, the relative viability (NCI-H2009; first compound 1.265 µM) was 0.359 and the relative viability (NCI-H2009; first compound 4 µM) was 0.388. It also gave a relative viability (NCI-H596; first compound 0.04 µM) of 1.17, a relative viability (NCI-H596; first compound 0.1265 µM) of 1.03 and a relative viability (NCI-H596; first compound 0.4 µM) of 0.421. For the same molecule, the relative viability (NCI-H596; first compound 1.265 µM) was 0.236, the relative viability (NCI-H596; first compound 4 µM) was 0.23 and the relative viability (LK-2; first compound 0.04 µM) was 0.89. It also gave a relative viability (LK-2; first compound 0.1265 µM) of 0.785, a relative viability (LK-2; first compound 0.4 µM) of 0.562 and a relative viability (LK-2; first compound 1.265 µM) of 0.255. The relative viability (LK-2; first compound 4 µM) was 0.243, the relative viability (NCI-H322M; first compound 0.04 µM) was 1.09 and the relative viability (NCI-H322M; first compound 0.1265 µM) was 1.11. The relative viability (NCI-H322M; first compound 0.4 µM) was 1.1, the relative viability (NCI-H322M; first compound 1.265 µM) was 0.692 and the relative viability (NCI-H322M; first compound 4 µM) was 0.608. For the same molecule, the relative viability (SK-MES-1; first compound 0.04 µM) was 1.29, the relative viability (SK-MES-1; first compound 0.1265 µM) was 1.07 and the relative viability (SK-MES-1; first compound 0.4 µM) was 1.12. For the same molecule, the relative viability (SK-MES-1; first compound 1.265 µM) was 0.477, the relative viability (SK-MES-1; first compound 4 µM) was 0.264 and the relative viability (HARA; first compound 0.04 µM) was 1.11. The relative viability (HARA; first compound 0.1265 µM) was 1, the relative viability (HARA; first compound 0.4 µM) was 0.781 and the relative viability (HARA; first compound 1.265 µM) was 0.261. For the same molecule, the relative viability (HARA; first compound 4 µM) was 0.234, the relative viability (SW 1573; first compound 0.04 µM) was 0.984 and the relative viability (SW 1573; first compound 0.1265 µM) was 0.756. It also gave a relative viability (SW 1573; first compound 0.4 µM) of 0.827, a relative viability (SW 1573; first compound 1.265 µM) of 0.536 and a relative viability (SW 1573; first compound 4 µM) of 0.239. For the same molecule, the relative viability (NCI-H1792; first compound 0.04 µM) was 0.656, the relative viability (NCI-H1792; first compound 0.4 µM) was 0.708 and the relative viability (NCI-H1792; first compound 1.265 µM) was 0.622. For the same molecule, the relative viability (NCI-H1792; first compound 4 µM) was 0.31.
